{
  "source": "patent US20250295109A1",
  "about": "“UNIVERSAL SYNERGIST FOR INSECT ATTRACTANTS” (North Carolina State University, priority 2022, published 2025)",
  "key": {"[1]": {"test_system": "male corn earworm (CEW, Helicoverpa zea)", "assay": "field trapping of male CEW in Hartstack traps, nonanal and/or 1-hexanol", "type": "in vivo", "conditions": "for effectiveness in trapping male CEW, without commercial pheromone lure: 0.5% w/w level, without the commercial pheromone lure, sorghum or corn fields; for effectiveness of commercial lure in trapping male CEW when combined: 0.5% w/w with major component of commercial pheromone lure, used in combination with the commercial lure", "excerpt": "FIG. 11 is a graph showing the results of a field trapping study of male com earworm (CEW, Helicoverpa zea) using traps containing a dispenser containing a solution of 0.5% nonanal and/or 0.5% 1-hexanol alone or also containing a dispenser for a commercial CEW sex pheromone lure. Effectiveness is reported as number of male CEW capture per day per trap.\nTo determine the effects of 1-hexanol and combinations of 1-hexanol and nonanal, Hartstack traps with or without the commercial CEW sex pheromone lure and with or without one or both of nonanal and 1-hexanol were placed in sorghum or corn fields. Nonanal and 1-hexanol, if present, were present at 0.5% on a weight to weight basis with the major component of the commercial pheromone lure."}, "male CEW antenna": {"test_system": "male CEW antenna", "assay": "GC-EAD of female sex pheromone gland extract on male CEW antenna", "set-up": "species or system Helicoverpa zea", "conditions": "compound present in CEW female sex pheromone gland extract", "protocol": "Based on the finding that nonanal attracts male CEW in laboratory and field behavioral studies, and as described hereinbelow, a study of the female sex pheromone gland extract of Helicoverpa zea was performed using a gas chromatography-electroantennograom detector (GC-EAD), a device that couples a GC to an insect antenna, the olefactory organ of insects that serves as a biological detector. In this device, the GC separates chemicals in a mixture and presents them to the antenna, and its electrophysiological responses reveal which chemicals it senses. […]\nThe sex pheromone glands of multiple CEW females were dissected and the contents extracted with hexane. […] In parallel to the GC, the electrophysiological response of the antenna is recorded to identify the active compounds. […] Gland extracts were also analyzed using gas chromatography-mass spectrometry (GC-MS) (6890 GC and 5975 MS, Agilent Technologies, Palo Alto, California, United States of America) The GC-MS was operated in pulsed splitless mode (15 psi for 0.5 min, then 6 psi) and equipped with a DB-WAXetr column (30 m×0.25 mm, df=0.25 μm, Agilent Technologies, Palo Alto, California, United States of America), and helium was used as the carrier gas at an average velocity of 34 cm/s. […]"}, "Drosophila melanogaster [2]": {"test_system": "Drosophila melanogaster", "assay": "dual choice free flight cage trapping assay with glass vial traps (water or balsamic vinegar)", "type": "in vivo", "conditions": "24 hours", "excerpt": "FIG. 4 is a schematic drawing showing a design for a dual choice free flight cage trapping assay used herein to determine the effect of nonanal on trapping fruit flies (Drosophila melanogaster). A 13 centimeter (cm) by 19 cm by 9.5 cm cage with a mesh opening on the top is equipped with two glass 5.5 cm by 2.5 cm glass vial traps, each equipped with a lid fitted with a truncated pipette tip. At the bottom of each glass vial trap is either water or a fermentation attractant (i.e., balsamic vinegar). Inside each glass vial trap is another smaller glass vial containing either a solution of nonanal in dimethyl sulfoxide (DMSO) or a DMSO without nonanal. The attraction of starved Drosphila melanogaster males and females to balsamic vinegar (Bellino, Cento Fine Foods, Deptford, New Jersey, United States of America) with and without 1 μg nonanal was studied in a dual choice trapping assay. Nonanal was placed in a glass vial, separately from the balsamic vinegar, but adjacent to it. In all experiments, 20 3-4 day old, 24 hours starved flies (males and females) were given a choice between two traps. […] After 24 hours, flies in both traps were counted. Various amounts of nonanal were dissolved in DMSO, and then 10 μl of nonanal DMSO solution were placed in a separate glass vial (12×32 mm, Thermo Fisher Scientific. Waltham, Massachusetts, United States of America) adjacent to 0.4 ml of water in one trap. The other trap in the dual choice trapping assay contained 0.4 ml of water plus a separate vial containing 10 μl of DMSO. Twenty 3-4 day old, 24 hours starved flies (males and females) were given a choice between the two traps. After 24 hours, flies in both traps were counted. […] N=10. […] The attraction of starved Drosphila melanogaster males and females to balsamic vinegar to which various amounts of nonanal were added is shown in FIG. 6. Various amounts of nonanal were dissolved in DMSO, and then 10 μl of nonanal DMSO solution were placed in a separate glass vial adjacent to 0.4 ml of balsamic vinegar in one trap. […] After 24 hours, flies in both traps were counted. […]"}, "[3]": {"test_system": "male corn earworm (CEW, Helicoverpa zea)", "assay": "field trapping of male CEW in Hartstack traps, nonanal dose study", "type": "in vivo", "protocol": "FIG. 10C is a graph showing the effectiveness of different doses of nonanal in field trapping of male corn earworm (CEW, Helicoverpa zea) using a commercial sex pheromone lure with different doses of nonanal. Effectiveness is measured as the number of male CEW captured per trap per day. The data for the two bars on the left are from traps with no commercial pheromone dispenser, while the data for the six bars on the right are from traps with the commercial pheromone dispenser in combination with the dispenser containing either paraffin oil alone (0 percent (%) nonanal) or a paraffin oil solution comprising 0.5% to 8% nonanal (weight to weight relative to the amount of the main component of the commercial sex pheromone).\nSome of the traps also contained, adjacent to the glass vials, a lure comprising a rubber septum formulated with the commercial CEW sex pheromone. Assuming that the commercial pheromone lure contained about 2 mg of the major component (i.e., (Z)-11-hexadecenal), the solutions in the glass vials were prepared to contain various amounts (0%, 0.5%, 1%, 2%, 4%, or 8%) of nonanal on a weight to weight basis with the (Z)-11-hexadecenal."}, "Drosophila melanogaster [4]": {"test_system": "Drosophila melanogaster", "assay": "dual choice trapping cage assay with commercial fruit fly traps and lure (TERRO)", "type": "in vivo", "conditions": "24 hours", "protocol": "FIG. 7A is a schematic drawing showing a design for a dual choice free flight cage trapping assay used to determine the effect of nonanal on the trapping of fruit flies (Drosophila melanogaster) when used in combination with a commercial fruit fly lure. Inside a 30 centimeter (cm) by 30 cm cage are placed two commercial fruit fly traps. Inside each commercial fruit fly trap is placed 1 milliliter (mL) of a commercial fruit fly lure. In addition, in one trap (Trap 1) is placed a 1.5 mL vial containing 50 microliters (μL) dimethyl sulfoxide (DMSO), while in the other trap (Trap 2) is placed a 1.5 mL vial containing 50 μL of a solution of nonanal in DMSO. For each experiment 40 to 120 fruit flies are used. The attraction of starved Drosphila melanogaster males and females to a commercial lure and trap to which various amounts of nonanal were added is shown in FIG. 7B. In all experiments, 40 to 120 3-4 day old, 24 hours starved flies (males and females) were given a choice between two commercial fruit fly traps (sold under the tradename TERRO® traps; Model #BT2502; Senoret Chemicals Co., Inc., Lititz, Pennsylvania, United States of America). […] After 24 hours, flies in both traps were counted. […] After 24 hours, flies in both traps were counted."}, "Musca domestica": {"test_system": "Musca domestica", "assay": "dual choice trapping cage assay with commercial fly trap attractant (STARBAR)", "type": "in vivo", "conditions": "24 hours", "excerpt": "FIG. 8A is a schematic drawing showing a design for a dual choice free flight cage trapping assay used to determine the effect of nonanal on the trapping of house flies (Musca domestica) when used in combination with a commercial house fly lure. At the right of the drawing is shown a schematic of a 30 centimeter (cm) by 30 cm cage containing two commercial house fly traps (Trap 1 and Trap 2), each including a plastic cup fitted with a transparent lid that has an opening for the flies. An enlarged view of an individual trap is shown to the left side of the drawing. Inside each trap, at the bottom, is placed a commercial fly attractant as a lure. In addition, each trap is fitted with a 1.5 mL vial containing either 50 microliters (μL) dimethyl sulfoxide (DMSO) or 50 μL of a solution of nonanal in DMSO. For each experiment, 20 house flies are used.\nThe attraction of fed Musca domestica males and females to a commercial lure and a laboratory-built trap to which various amounts of nonanal were added is shown in […]. […] After 24 hours, house flies in both traps were counted. […]\nThe other trap in the dual choice trapping assay contained 50 mL of the commercial fly trap attractant lure plus a 50 μl of DMSO only. […] After 24 hours, flies in both traps were counted."}},
  "data": [
    {"smiles": "CCCCCCO", "note": "[1-hexanol]", "values": [
      {"measurement": "effectiveness in trapping male CEW, without commercial pheromone lure", "setting": "[1]", "value": "not effective in trapping male CEW"},
      {"measurement": "effectiveness of commercial lure in trapping male CEW when combined", "setting": "[1]", "value": "improved its effectiveness"},
      {"measurement": "EAD response of the antenna", "setting": "male CEW antenna", "value": "elicit an EAD response in the antenna"}
    ]},
    {"smiles": "CCCCCCCCC=O", "note": "[nonanal]", "values": [
      {"measurement": "attraction of flies to balsamic vinegar at highest amount of nonanal", "setting": "Drosophila melanogaster [2]; highest amount of nonanal (1000 μg) in DMSO adjacent to balsamic vinegar", "value": "interferes with attraction of flies to balsamic vinegar"},
      {"measurement": "flies trapped, nonanal trap versus trap without nonanal", "setting": "Drosophila melanogaster [2]; increasing amount of nonanal (e.g., 1 μg) in DMSO in vial adjacent to 0.4 ml balsamic vinegar, other trap balsamic vinegar and DMSO", "value": "more flies are trapped"},
      {"measurement": "flies trapped, nonanal trap versus trap without nonanal", "setting": "Drosophila melanogaster [2]; nonanal at various concentrations in DMSO (10 μl) in vial adjacent to 0.4 ml water, other trap water and DMSO only, starved males and females", "value": "does not trap any more flies than traps containing water and DMSO only"},
      {"measurement": "effectiveness in trapping male CEW, without commercial pheromone lure", "setting": "[1]", "value": "not effective in trapping male CEW"},
      {"measurement": "effectiveness of commercial lure in trapping male CEW when combined", "setting": "[1]", "value": "improved its effectiveness"},
      {"measurement": "trap effectiveness with commercial CEW sex pheromone", "setting": "[3]; e.g. 0.5% to 4% nonanal (w/w to (Z)-11-hexadecenal) added to trap with commercial CEW sex pheromone", "value": "increased the trap effectiveness"},
      {"measurement": "effectiveness in capturing male CEW, no commercial pheromone", "setting": "[3]; traps containing only nonanal in paraffin oil, no commercial CEW sex pheromone lure", "value": "not effective in capturing male CEW"},
      {"measurement": "flies trapped, nonanal trap versus trap without nonanal", "setting": "Drosophila melanogaster [4]; increasing amount of nonanal in 50 μl DMSO with 1 mL commercial fruit fly lure, other trap lure plus DMSO", "value": "more flies are trapped"},
      {"measurement": "attraction of flies to commercial fruit fly lure at too much nonanal", "setting": "Drosophila melanogaster [4]; too much nonanal in 50 μl DMSO with 1 mL commercial fruit fly lure", "value": "interferes with attraction of flies to the commercial fruit fly lure"},
      {"measurement": "EAD response of the antenna", "setting": "male CEW antenna", "value": "elicit an EAD response in the antenna"},
      {"measurement": "house flies trapped, nonanal trap versus trap without nonanal", "setting": "Musca domestica; increasing amount of nonanal in 50 μl DMSO with 50 mL commercial fly trap attractant lure, other trap lure plus DMSO, fed flies", "value": "more house flies are trapped"},
      {"measurement": "attraction of house flies to commercial fly trap attractant lure at too much nonanal", "setting": "Musca domestica; too much nonanal in 50 μl DMSO with 50 mL commercial fly trap attractant lure", "value": "interferes with attraction of flies to the commercial fly trap attractant lure"}
    ]}
  ]
}
